Measurements taken from US10112941B2, “Tricyclic compounds as anticancer agents” (BRISTOL-MYERS SQUIBB COMPANY, priority 2013, dated 2018).
pIC50: −log10 of the molar value.

Each compound was assayed against BRD4 (Homo sapiens, UniProt O60885) (assay: Time Resolved Fluorescence Resonance Energy Transfer (TR-FRET) binding assay, BRD4). Settings: one of the FRET assays described; read-out: FRET BRD4 IC50.
With Cc1noc(C)c1-c1cnc2c3ccc(C(C)(C)O)cc3n(C(c3cccc(F)c3)C3CCOCC3)c2c1 (single isomer, unassigned) [Example 147, 2-[3-(Dimethyl-1,2-oxazol-4-yl)-5-[(3-fluorophenyl)(oxan-4-yl)methyl]-5H-pyrido[3,2-b]indol-7-yl]propan-2-ol] the pIC50 was greater than 8.30.
Cc1noc(C)c1-c1cnc2c3ccc(S(C)(=O)=O)cc3n(C(c3ccccc3)C3CCC(F)(F)CC3)c2c1 (single isomer, unassigned) [Example 155, 4-{5-[(4,4-Difluorocyclohexyl)(phenyl)methyl]-7-methanesulfonyl-5H-pyrido[3,2-b]indol-3-yl}-3,5-dimethyl-1,2-oxazole] showed a pIC50 greater than 7.60.
With Cc1noc(C)c1-c1cnc2c3ccc(C(C)(C)O)cc3n(C(c3ccccc3)C3CCOCC3)c2c1 (single isomer, unassigned) [Example 1, 2-[3-(Dimethyl-1,2-oxazol-4-yl)-5-[oxan-4-yl(phenyl)methyl]-5H-pyrido[3,2-b]indol-7-yl]propan-2-ol] the pIC50 was greater than 8.30.
With Cc1ccc([C@H](C2CCOCC2)n2c3cc(CS(C)(=O)=O)ccc3c3ncc(-c4c(C)nnn4C)cc32)nc1 [Example 338] the pIC50 was greater than 8.30.
Work on [2H]C([2H])([2H])c1nnn(C)c1-c1cnc2c3ccc(S(C)(=O)=O)cc3n(C(c3ccccc3)C3CCC(F)(F)CC3)c2c1 (stereo not shown) [Example 158, 5-{5-[(4,4-Difluorocyclohexyl)(phenyl)methyl]-7-methanesulfonyl-5H-pyrido[3,2-b]indol-3-yl}-4-(^2H3)methyl-1-methyl-1H-1,2,3-triazole] yielded a pIC50 greater than 8.30.
With Cc1noc(C)c1-c1cnc2c3ccc(C(C)(C)O)cc3n(C(CCC(F)(F)F)c3cocn3)c2c1 (single isomer, unassigned) [Example 34, 2-[3-(Dimethyl-1,2-oxazol-4-yl)-5-[4,4,4-trifluoro-1-(1,3-oxazol-4-yl)butyl]-5H-pyrido[3,2-b]indol-7-yl]propan-2-ol] the pIC50 was greater than 8.30.
Cc1nnn(C)c1-c1cnc2c3c(S(C)(=O)=O)cccc3n([C@H](c3ccccc3)C3CCOCC3)c2c1 [Example 259, 5-{9-Methanesulfonyl-5-[(S)-oxan-4-yl(phenyl)methyl]-5H-pyrido[3,2-b]indol-3-yl}-1,4-dimethyl-1H-1,2,3-triazole] gave a pIC50 greater than 8.30.
Cc1noc(C)c1-c1cnc2c3ccc(C(C)(C)O)cc3n(C(c3ccccc3F)C3CCOCC3)c2c1 (single isomer, unassigned) [Example 150, 2-[3-(Dimethyl-1,2-oxazol-4-yl)-5-[(2-fluorophenyl)(oxan-4-yl)methyl]-5H-pyrido[3,2-b]indol-7-yl]propan-2-ol] showed a pIC50 greater than 8.30.
Work on Cc1nnn(C)c1-c1cnc2c3cc(Cl)c(C(C)(C)O)cc3n([C@H](c3ccccc3)C3CCOCC3)c2c1 [Example 409, 2-[8-Chloro-3-(dimethyl-1H-1,2,3-triazol-5-yl)-5-[(S)-oxan-4-yl(phenyl)methyl]-5H-pyrido[3,2-b]indol-7-yl]propan-2-ol] yielded a pIC50 greater than 8.30.
With Cc1noc(C)c1-c1cnc2c3ccc(C(C)(C)O)cc3n(C(c3cc(F)cc(F)c3)C3CCOCC3)c2c1 (single isomer, unassigned) [Example 130, 2-{5-[(3,5-Difluorophenyl)(oxan-4-yl)methyl]-3-(dimethyl-1,2-oxazol-4-yl)-5H-pyrido[3,2-b]indol-7-yl}propan-2-ol] the pIC50 was greater than 8.30.
Work on Cc1noc(C)c1-c1cnc2c3ccc(C(C)(C)O)cc3n(C(CCC(F)(F)F)c3cnoc3)c2c1 (single isomer, unassigned) [Example 36, 2-[3-(Dimethyl-1,2-oxazol-4-yl)-5-[4,4,4-trifluoro-1-(1,2-oxazol-4-yl)butyl]-5H-pyrido[3,2-b]indol-7-yl]propan-2-ol] yielded a pIC50 greater than 7.60.
Work on [2H]C([2H])([2H])c1nnn(C)c1-c1cnc2c3ccc(C(C)(C)O)c(F)c3n(C(c3ccc(F)cn3)C3CCOCC3)c2c1 (single isomer, unassigned) [Example 323] yielded a pIC50 greater than 7.60.
With [2H]C([2H])([2H])c1nnn(C)c1-c1cnc2c3cc(F)c(C(C)(C)O)cc3n(C(c3cc(C)on3)C3CCOCC3)c2c1 (single isomer, unassigned) [Example 313] the pIC50 was greater than 8.30.
Work on COc1ccc(S(C)(=O)=O)c2c1c1ncc(-c3c(C)nnn3C)cc1n2[C@H](c1ccccc1)C1CCOCC1 [Example 182, 5-{6-Methanesulfonyl-9-methoxy-5-[(S)-oxan-4-yl(phenyl)methyl]-5H-pyrido[3,2-b]indol-3-yl}-1,4-dimethyl-1H-1,2,3-triazole] yielded a pIC50 greater than 8.30.
Work on [2H]C([2H])([2H])c1nnn(C)c1-c1cnc2c3c(OC)cc(S(C)(=O)=O)cc3n(C(c3ncccc3F)C3CCOCC3)c2c1 (stereo not shown) [Example 208, 3-Fluoro-2-[{7-methanesulfonyl-9-methoxy-3-[4-(^2H3)methyl-1-methyl-1H-1,2,3-triazol-5-yl]-5H-pyrido[3,2-b]indol-5-yl}(oxan-4-yl)methyl]pyridine] yielded a pIC50 greater than 8.30.
Cc1cc(C(C2CCOCC2)n2c3cc(C(C)(C)O)ccc3c3ncc(-c4c(C)noc4C)cc32)no1 (single isomer, unassigned) [Example 307] gave a pIC50 greater than 7.60.
Work on [2H]C([2H])([2H])c1nnn(C)c1-c1cnc2c3ccc(C(C)(C)O)cc3n(C(c3ccc(F)cn3)C3CCOCC3)c2c1 (single isomer, unassigned) [Example 317] yielded a pIC50 greater than 8.30.
Cc1nnn(C)c1-c1cnc2c3cc(F)c(C(C)(O)C4CC4)cc3n([C@H](c3ccccc3)C3CCOCC3)c2c1 (single isomer, unassigned) [Example 444] gave a pIC50 greater than 8.30.
Work on Cc1nnn(C)c1-c1cnc2c3ccc([C@](C)(O)C4CC4)c(F)c3n([C@H](c3ccccc3)C3CCOCC3)c2c1 [Example 434, (1R)-1-cyclopropyl-1-{6-fluoro-3-[4-(^2H3)methyl-1-methyl-1H-1,2,3-triazol-5-yl]-5-[(S)-oxan-4-yl(phenyl)methyl]-5H-pyrido[3,2-b]indol-7-yl}ethan-1-ol] yielded a pIC50 greater than 8.30.
COc1cc(C(C)(C)O)cc2c1c1ncc(-c3c(C)nnn3C)cc1n2C(c1ccccc1F)C1CCOCC1 (single isomer, unassigned) [Example 138, 2-[3-(Dimethyl-1H-1,2,3-triazol-5-yl)-5-[(2-fluorophenyl)(oxan-4-yl)methyl]-9-methoxy-5H-pyrido[3,2-b]indol-7-yl]propan-2-ol] showed a pIC50 greater than 8.30.
Cc1nnn(C)c1-c1cnc2c3ccc(C(C)(C)O)cc3n([C@@H](c3ccccc3F)C3CCOCC3)c2c1 [Example 77] gave a pIC50 greater than 8.30.
Work on [2H]C([2H])([2H])c1nnn(C)c1-c1cnc2c3ccc(C(C)(C)O)cc3n(C(c3ccncc3F)C3CCOCC3)c2c1 (single isomer, unassigned) [Example 311] yielded a pIC50 greater than 8.30.
Cc1noc(C)c1-c1cnc2c3ccc(C(C)(C)O)cc3n([C@@H](c3ccccc3)C3CCC3)c2c1 [Example 14] showed a pIC50 greater than 7.60.
In the case of Cc1nnn(C)c1-c1cnc2c3ccc(C(C)(C)O)cc3n(C(c3cc(F)ccc3F)C3CCOCC3)c2c1 (single isomer, unassigned) [Example 131, 2-{5-[(2,5-Difluorophenyl)(oxan-4-yl)methyl]-3-(dimethyl-1H-1,2,3-triazol-5-yl)-5H-pyrido[3,2-b]indol-7-yl}propan-2-ol], the pIC50 was greater than 8.30.
Cc1nnn(C)c1-c1cnc2c3ccc(C(C)(C)O)cc3n(C(c3ccc(F)c(F)c3)C3CCOCC3)c2c1 (single isomer, unassigned) [Example 96, 2-{5-[(3,4-Difluorophenyl)(oxan-4-yl)methyl]-3-(dimethyl-1H-1,2,3-triazol-5-yl)-5H-pyrido[3,2-b]indol-7-yl}propan-2-ol] gave a pIC50 greater than 7.60.
